Reference: the kinase profiling compilation of Christmann-Franck et al. (2016)
Values belong to the compound of their own block, whether it stands above or below them.

Experiments:
Assay in all cases: KINOMEscan competition binding
Conditions in all cases: compound 10.0 µM
[1] = target: PRKACB (human) (UniProt P22694)
[2] = target: NTRK3 (human) (UniProt Q16288)
[3] = target: BTK (human) (UniProt Q06187)
[4] = target: EPHA7 (human) (UniProt Q15375)
[5] = target: CSNK1D (human) (UniProt P48730)
[6] = target: MAPK6 (human) (UniProt Q16659)
[7] = target: FES (human) (UniProt P07332)
[8] = target: STK32C (human) (UniProt Q86UX6)
[9] = target: ERN1 (human) (UniProt O75460)
[10] = target: STK16 (human) (UniProt O75716)
[11] = target: IGF1R (human) (UniProt P08069)
[12] = target: CAMK1G (human) (UniProt Q96NX5)
[13] = target: MARK1 (human) (UniProt Q9P0L2)
[14] = target: TLK1 (human) (UniProt Q9UKI8)
[15] = target: MAP3K12 (human) (UniProt Q12852)
[16] = target: FGFR1 (human) (UniProt P11362)
[17] = target: TNNI3K (human) (UniProt Q59H18)
[18] = target: TYK2 JH2 pseudokinase (human) (UniProt P29597)
[19] = target: STK17A (human) (UniProt Q9UEE5)
[20] = target: TIE1 (human) (UniProt P35590)
[21] = target: EPHB2 (human) (UniProt P29323)
[22] = target: PRKCQ (human) (UniProt Q04759)
[23] = target: AKT3 (human) (UniProt Q9Y243)
[24] = target: MAPK1 (human) (UniProt P28482)
[25] = target: CSNK1A1L (human) (UniProt Q8N752)
[26] = target: TXK (human) (UniProt P42681)
[27] = target: CSNK1G2 (human) (UniProt P78368)
[28] = target: MAP4K5 (human) (UniProt Q9Y4K4)
[29] = target: GRK7 (human) (UniProt Q8WTQ7)
[30] = target: TNK1 (human) (UniProt Q13470)
[31] = target: NEK1 (human) (UniProt Q96PY6)
[32] = target: CAMK4 (human) (UniProt Q16566)
[33] = target: WEE1 (human) (UniProt P30291)
[34] = target: FGFR4 (human) (UniProt P22455)
[35] = target: PRKACA (human) (UniProt P17612)
[36] = target: DYRK1A (human) (UniProt Q13627)
[37] = target: FLT1 (human) (UniProt P17948)
[38] = target: PAK6 (human) (UniProt Q9NQU5)
[39] = target: PLK3 (human) (UniProt Q9H4B4)
[40] = target: PAK2 (human) (UniProt Q13177)
[41] = target: PTK6 (human) (UniProt Q13882)
[42] = target: MAP2K4 (human) (UniProt P45985)

Chain of CAMK1G (human) (Q96NX5 whole entry, looked up): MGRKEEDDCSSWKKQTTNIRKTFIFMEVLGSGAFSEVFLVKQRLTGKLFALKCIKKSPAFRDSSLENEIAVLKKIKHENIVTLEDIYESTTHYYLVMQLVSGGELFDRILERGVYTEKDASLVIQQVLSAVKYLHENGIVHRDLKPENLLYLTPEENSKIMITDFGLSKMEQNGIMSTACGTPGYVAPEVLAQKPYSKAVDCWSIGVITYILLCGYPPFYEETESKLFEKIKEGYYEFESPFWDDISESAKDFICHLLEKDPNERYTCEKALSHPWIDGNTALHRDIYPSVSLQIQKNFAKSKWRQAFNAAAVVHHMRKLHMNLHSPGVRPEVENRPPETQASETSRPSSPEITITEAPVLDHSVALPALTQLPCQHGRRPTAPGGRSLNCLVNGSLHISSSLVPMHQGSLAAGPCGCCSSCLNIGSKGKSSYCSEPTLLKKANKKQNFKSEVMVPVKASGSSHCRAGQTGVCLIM
Chain of FES (human) (P07332 whole entry, looked up): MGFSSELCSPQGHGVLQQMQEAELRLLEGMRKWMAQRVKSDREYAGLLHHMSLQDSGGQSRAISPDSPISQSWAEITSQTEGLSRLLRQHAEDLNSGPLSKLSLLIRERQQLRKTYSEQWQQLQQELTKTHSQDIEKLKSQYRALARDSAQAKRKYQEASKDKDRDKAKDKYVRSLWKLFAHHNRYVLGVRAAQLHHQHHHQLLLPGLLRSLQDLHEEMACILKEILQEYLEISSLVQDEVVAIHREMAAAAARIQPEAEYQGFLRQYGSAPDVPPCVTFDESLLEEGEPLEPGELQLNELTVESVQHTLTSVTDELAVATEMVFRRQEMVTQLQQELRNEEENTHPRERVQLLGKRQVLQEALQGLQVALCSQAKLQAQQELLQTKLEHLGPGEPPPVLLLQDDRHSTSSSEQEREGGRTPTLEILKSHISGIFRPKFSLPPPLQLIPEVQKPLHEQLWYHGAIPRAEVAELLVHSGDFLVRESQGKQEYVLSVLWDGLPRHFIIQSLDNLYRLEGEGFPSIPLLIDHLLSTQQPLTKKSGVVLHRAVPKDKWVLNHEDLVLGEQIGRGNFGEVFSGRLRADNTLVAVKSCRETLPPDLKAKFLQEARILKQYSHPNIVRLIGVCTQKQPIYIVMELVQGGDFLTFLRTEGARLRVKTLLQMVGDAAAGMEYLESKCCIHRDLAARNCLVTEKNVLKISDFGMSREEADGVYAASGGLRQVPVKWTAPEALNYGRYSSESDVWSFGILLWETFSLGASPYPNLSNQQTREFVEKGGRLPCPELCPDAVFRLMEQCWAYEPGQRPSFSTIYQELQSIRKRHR
Chain of STK32C (human) (Q86UX6 whole entry, looked up): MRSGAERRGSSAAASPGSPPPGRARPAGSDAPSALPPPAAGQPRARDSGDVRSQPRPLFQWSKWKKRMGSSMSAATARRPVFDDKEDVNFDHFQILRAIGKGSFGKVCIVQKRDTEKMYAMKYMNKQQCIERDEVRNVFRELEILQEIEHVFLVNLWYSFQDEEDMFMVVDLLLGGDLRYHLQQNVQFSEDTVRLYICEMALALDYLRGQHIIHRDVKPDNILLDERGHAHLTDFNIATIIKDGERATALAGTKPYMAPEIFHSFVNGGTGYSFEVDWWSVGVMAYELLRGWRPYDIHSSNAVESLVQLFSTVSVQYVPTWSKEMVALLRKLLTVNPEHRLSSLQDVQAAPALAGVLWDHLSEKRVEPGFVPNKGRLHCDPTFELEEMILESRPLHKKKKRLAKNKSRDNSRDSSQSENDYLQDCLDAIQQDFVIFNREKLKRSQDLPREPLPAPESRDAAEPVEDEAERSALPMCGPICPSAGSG
Chain of TNNI3K (human) (Q59H18 whole entry, looked up): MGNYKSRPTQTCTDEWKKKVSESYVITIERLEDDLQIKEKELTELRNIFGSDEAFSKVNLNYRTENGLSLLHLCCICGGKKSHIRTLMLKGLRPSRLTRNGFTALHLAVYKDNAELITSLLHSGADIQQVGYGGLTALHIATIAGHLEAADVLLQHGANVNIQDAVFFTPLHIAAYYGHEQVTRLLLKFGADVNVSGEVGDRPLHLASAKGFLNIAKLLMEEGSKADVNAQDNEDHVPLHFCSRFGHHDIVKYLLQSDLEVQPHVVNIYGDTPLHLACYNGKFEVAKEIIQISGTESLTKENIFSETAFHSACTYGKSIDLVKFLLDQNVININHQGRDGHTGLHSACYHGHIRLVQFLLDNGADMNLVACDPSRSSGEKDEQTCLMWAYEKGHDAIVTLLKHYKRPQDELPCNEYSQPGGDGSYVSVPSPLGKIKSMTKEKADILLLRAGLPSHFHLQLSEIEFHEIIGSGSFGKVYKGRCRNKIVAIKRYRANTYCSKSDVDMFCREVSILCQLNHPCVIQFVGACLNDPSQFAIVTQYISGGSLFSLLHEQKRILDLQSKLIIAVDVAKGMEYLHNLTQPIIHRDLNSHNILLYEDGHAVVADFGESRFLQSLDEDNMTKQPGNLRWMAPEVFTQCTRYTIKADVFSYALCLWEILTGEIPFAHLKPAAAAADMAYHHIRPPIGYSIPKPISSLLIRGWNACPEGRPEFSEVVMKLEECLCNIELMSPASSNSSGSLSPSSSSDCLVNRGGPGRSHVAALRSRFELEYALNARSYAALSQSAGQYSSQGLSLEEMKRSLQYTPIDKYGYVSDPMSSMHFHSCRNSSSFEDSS
Chain of MAPK6 (human) (Q16659 whole entry, looked up): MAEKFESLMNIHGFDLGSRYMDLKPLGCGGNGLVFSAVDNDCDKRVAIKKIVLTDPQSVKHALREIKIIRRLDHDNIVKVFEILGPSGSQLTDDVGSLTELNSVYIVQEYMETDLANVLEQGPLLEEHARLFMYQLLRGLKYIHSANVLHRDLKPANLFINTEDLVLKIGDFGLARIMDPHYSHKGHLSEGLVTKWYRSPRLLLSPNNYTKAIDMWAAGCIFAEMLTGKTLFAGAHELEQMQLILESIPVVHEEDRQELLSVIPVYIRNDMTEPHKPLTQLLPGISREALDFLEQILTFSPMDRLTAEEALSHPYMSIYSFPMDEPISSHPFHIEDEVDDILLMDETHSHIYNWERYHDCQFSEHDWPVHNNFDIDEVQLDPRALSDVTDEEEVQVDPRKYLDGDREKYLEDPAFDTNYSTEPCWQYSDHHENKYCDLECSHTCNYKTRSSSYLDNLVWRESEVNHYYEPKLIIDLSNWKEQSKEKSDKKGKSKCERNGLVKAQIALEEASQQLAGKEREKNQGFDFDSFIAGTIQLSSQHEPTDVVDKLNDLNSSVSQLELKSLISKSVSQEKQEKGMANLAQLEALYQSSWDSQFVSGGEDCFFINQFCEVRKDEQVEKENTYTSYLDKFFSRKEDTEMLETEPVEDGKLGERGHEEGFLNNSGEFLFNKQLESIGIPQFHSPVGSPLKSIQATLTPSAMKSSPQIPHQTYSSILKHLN
Chain of MAP4K5 (human) (Q9Y4K4 whole entry, looked up): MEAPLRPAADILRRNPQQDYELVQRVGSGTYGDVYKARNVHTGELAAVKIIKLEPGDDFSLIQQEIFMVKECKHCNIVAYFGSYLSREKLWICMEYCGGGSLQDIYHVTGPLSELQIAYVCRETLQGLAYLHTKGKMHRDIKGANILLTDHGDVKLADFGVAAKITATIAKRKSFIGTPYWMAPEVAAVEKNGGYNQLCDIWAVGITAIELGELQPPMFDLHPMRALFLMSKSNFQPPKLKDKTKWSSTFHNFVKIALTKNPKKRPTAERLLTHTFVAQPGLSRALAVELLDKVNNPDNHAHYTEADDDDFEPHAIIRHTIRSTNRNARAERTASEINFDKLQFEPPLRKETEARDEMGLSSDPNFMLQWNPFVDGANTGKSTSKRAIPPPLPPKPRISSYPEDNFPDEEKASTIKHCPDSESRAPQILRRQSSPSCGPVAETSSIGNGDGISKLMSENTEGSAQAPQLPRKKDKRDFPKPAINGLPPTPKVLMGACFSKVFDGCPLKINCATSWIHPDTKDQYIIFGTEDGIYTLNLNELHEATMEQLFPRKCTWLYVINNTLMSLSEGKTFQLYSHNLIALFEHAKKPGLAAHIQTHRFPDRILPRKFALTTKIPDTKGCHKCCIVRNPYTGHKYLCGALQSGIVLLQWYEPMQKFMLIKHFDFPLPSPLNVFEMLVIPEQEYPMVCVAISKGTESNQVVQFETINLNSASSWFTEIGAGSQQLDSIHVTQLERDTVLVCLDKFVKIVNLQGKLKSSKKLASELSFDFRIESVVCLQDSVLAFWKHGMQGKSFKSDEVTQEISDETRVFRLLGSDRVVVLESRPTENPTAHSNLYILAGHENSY
Chain of PAK2 (human) (Q13177 whole entry, looked up): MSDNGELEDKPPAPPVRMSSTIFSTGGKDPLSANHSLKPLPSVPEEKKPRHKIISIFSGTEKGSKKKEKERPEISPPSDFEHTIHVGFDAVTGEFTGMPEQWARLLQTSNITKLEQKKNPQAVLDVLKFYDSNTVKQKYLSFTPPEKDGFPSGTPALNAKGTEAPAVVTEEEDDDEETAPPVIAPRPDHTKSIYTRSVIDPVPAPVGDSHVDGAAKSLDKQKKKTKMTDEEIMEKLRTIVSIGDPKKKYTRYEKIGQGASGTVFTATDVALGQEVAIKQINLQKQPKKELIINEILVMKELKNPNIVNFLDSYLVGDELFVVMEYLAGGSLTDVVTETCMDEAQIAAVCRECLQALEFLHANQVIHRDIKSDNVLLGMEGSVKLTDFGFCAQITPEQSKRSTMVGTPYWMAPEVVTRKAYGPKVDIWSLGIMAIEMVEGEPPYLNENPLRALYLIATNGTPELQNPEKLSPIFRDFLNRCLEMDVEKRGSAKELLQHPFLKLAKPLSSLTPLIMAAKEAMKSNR
Chain of CSNK1A1L (human) (Q8N752 whole entry, looked up): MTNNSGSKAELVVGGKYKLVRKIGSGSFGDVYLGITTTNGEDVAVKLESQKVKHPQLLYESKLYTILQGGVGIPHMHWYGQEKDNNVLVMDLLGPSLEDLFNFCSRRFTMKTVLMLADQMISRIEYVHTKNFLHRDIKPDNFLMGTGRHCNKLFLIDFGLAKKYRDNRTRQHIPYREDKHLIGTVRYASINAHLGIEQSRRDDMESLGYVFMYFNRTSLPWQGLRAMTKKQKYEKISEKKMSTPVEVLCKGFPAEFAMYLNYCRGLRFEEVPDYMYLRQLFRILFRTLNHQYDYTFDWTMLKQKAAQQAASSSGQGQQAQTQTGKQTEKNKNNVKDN

kinase still bound, per cent of control [1]: 100% | kinase still bound, per cent of control [2]: 100% | kinase still bound, per cent of control [3]: 100% | kinase still bound, per cent of control [4]: 100% | kinase still bound, per cent of control [5]: 81% | kinase still bound, per cent of control [6]: 100% | kinase still bound, per cent of control [7]: 100% | kinase still bound, per cent of control [8]: 97% | kinase still bound, per cent of control [9]: 100% | kinase still bound, per cent of control [10]: 91% | kinase still bound, per cent of control [11]: 100% | kinase still bound, per cent of control [12]: 100% | kinase still bound, per cent of control [13]: 91% | kinase still bound, per cent of control [14]: 75% | kinase still bound, per cent of control [15]: 100% | kinase still bound, per cent of control [16]: 100% | kinase still bound, per cent of control [17]: 100% | kinase still bound, per cent of control [18]: 68% | kinase still bound, per cent of control [19]: 85% | kinase still bound, per cent of control [20]: 100% | kinase still bound, per cent of control [21]: 100% | kinase still bound, per cent of control [22]: 100% | kinase still bound, per cent of control [23]: 100% | kinase still bound, per cent of control [24]: 100% | kinase still bound, per cent of control [25]: 100% | kinase still bound, per cent of control [26]: 100% | kinase still bound, per cent of control [27]: 59% | kinase still bound, per cent of control [28]: 100% | kinase still bound, per cent of control [29]: 91% | kinase still bound, per cent of control [30]: 80% | kinase still bound, per cent of control [31]: 79% | kinase still bound, per cent of control [32]: 100% | kinase still bound, per cent of control [33]: 98% | kinase still bound, per cent of control [34]: 100% | kinase still bound, per cent of control [35]: 100% | kinase still bound, per cent of control [36]: 100% | kinase still bound, per cent of control [37]: 79% | kinase still bound, per cent of control [38]: 100% | kinase still bound, per cent of control [39]: 80% | kinase still bound, per cent of control [40]: 94% | kinase still bound, per cent of control [41]: 100% | kinase still bound, per cent of control [42]: 70%
Structure (SMILES): Cc1cnc(-c2cnc(NCCNc3ccc(C#N)cn3)nc2-c2ccc(Cl)cc2Cl)[nH]1

kinase still bound, per cent of control [1]: 100% | kinase still bound, per cent of control [2]: 62% | kinase still bound, per cent of control [3]: 100% | kinase still bound, per cent of control [4]: 95% | kinase still bound, per cent of control [5]: 94% | kinase still bound, per cent of control [6]: 100% | kinase still bound, per cent of control [7]: 100% | kinase still bound, per cent of control [8]: 94% | kinase still bound, per cent of control [9]: 100% | kinase still bound, per cent of control [10]: 29% | kinase still bound, per cent of control [11]: 95% | kinase still bound, per cent of control [12]: 70% | kinase still bound, per cent of control [13]: 96% | kinase still bound, per cent of control [14]: 36% | kinase still bound, per cent of control [15]: 90% | kinase still bound, per cent of control [16]: 100% | kinase still bound, per cent of control [17]: 80% | kinase still bound, per cent of control [18]: 32% | kinase still bound, per cent of control [19]: 16% | kinase still bound, per cent of control [20]: 99% | kinase still bound, per cent of control [21]: 100% | kinase still bound, per cent of control [22]: 24% | kinase still bound, per cent of control [23]: 100% | kinase still bound, per cent of control [24]: 100% | kinase still bound, per cent of control [25]: 100% | kinase still bound, per cent of control [26]: 100% | kinase still bound, per cent of control [27]: 100% | kinase still bound, per cent of control [28]: 83% | kinase still bound, per cent of control [29]: 51% | kinase still bound, per cent of control [30]: 88% | kinase still bound, per cent of control [31]: 86% | kinase still bound, per cent of control [32]: 98% | kinase still bound, per cent of control [33]: 80% | kinase still bound, per cent of control [34]: 88% | kinase still bound, per cent of control [35]: 100% | kinase still bound, per cent of control [36]: 2.3% | kinase still bound, per cent of control [37]: 100% | kinase still bound, per cent of control [38]: 86% | kinase still bound, per cent of control [39]: 97% | kinase still bound, per cent of control [40]: 61% | kinase still bound, per cent of control [41]: 100% | kinase still bound, per cent of control [42]: 82%
Structure (SMILES): Cn1cc(C2=C(c3ccc(Cl)cc3Cl)C(=O)NC2=O)c2ccccc21

kinase still bound, per cent of control [1]: 98% | kinase still bound, per cent of control [2]: 85% | kinase still bound, per cent of control [3]: 100% | kinase still bound, per cent of control [4]: 100% | kinase still bound, per cent of control [6]: 100% | kinase still bound, per cent of control [7]: 99% | kinase still bound, per cent of control [8]: 76% | kinase still bound, per cent of control [9]: 100% | kinase still bound, per cent of control [10]: 28% | kinase still bound, per cent of control [11]: 100% | kinase still bound, per cent of control [12]: 100% | kinase still bound, per cent of control [13]: 100% | kinase still bound, per cent of control [14]: 96% | kinase still bound, per cent of control [15]: 80% | kinase still bound, per cent of control [16]: 100% | kinase still bound, per cent of control [17]: 100% | kinase still bound, per cent of control [18]: 66% | kinase still bound, per cent of control [19]: 80% | kinase still bound, per cent of control [20]: 100% | kinase still bound, per cent of control [21]: 15% | kinase still bound, per cent of control [22]: 100% | kinase still bound, per cent of control [23]: 92% | kinase still bound, per cent of control [24]: 100% | kinase still bound, per cent of control [25]: 99% | kinase still bound, per cent of control [26]: 100% | kinase still bound, per cent of control [27]: 82% | kinase still bound, per cent of control [28]: 100% | kinase still bound, per cent of control [29]: 100% | kinase still bound, per cent of control [30]: 100% | kinase still bound, per cent of control [31]: 100% | kinase still bound, per cent of control [33]: 80% | kinase still bound, per cent of control [34]: 100% | kinase still bound, per cent of control [35]: 96% | kinase still bound, per cent of control [36]: 100% | kinase still bound, per cent of control [37]: 57% | kinase still bound, per cent of control [38]: 100% | kinase still bound, per cent of control [39]: 100% | kinase still bound, per cent of control [40]: 87% | kinase still bound, per cent of control [41]: 92% | kinase still bound, per cent of control [42]: 79%
Structure (SMILES): COc1ccc(CNC(=O)Nc2ncc([N+](=O)[O-])s2)cc1
